Experimental data from patent US20210130346A1, “Bromodomain Inhibitors” (AbbVie Inc., priority 2017, published 2021).

Target: BRD4 (BDI_K57-E168) (Homo sapiens, UniProt O60885)
Assay: TR-FRET bromodomain binding assay, BRD4 first bromodomain (BDI)
Conditions: mean Ki; 12 nM His tagged BRD4 (BDI_K57-E168), 100 nM Alexa647 probe; Ki calculated from IC50, probe Kd and probe concentration
Protocol: A time-resolved fluorescence resonance energy transfer (TR-FRET) assay was used to determine the affinities of compounds of the Examples listed in Table 1 for each bromodomain of BRD4. […] An Alexa647-labeled BET-inhibitor was used as the fluorescent probe in the assay.
Compound dilution series were prepared in DMSO via an approximately 3-fold serial dilution. Compound dilutions were added directly into white, low-volume assay plates (Perkin Elmer Proxiplate 384 Plus# 6008280) using a Labcyte Echo in conjunction with Labcyte Access and Thermo Multidrop CombinL robotics. Compounds were then suspended in eight microliters (μL) of assay buffer (20 mM Sodium Phosphate, pH 6.0, 50 mM NaCl, 1 mM Ethylenediaminetetraacetic acid disodium salt dihydrate, 0.01% Triton X-100, 1 mM DL-Dithiothreitol) containing His-tagged bromodomain, Europium-conjugated anti-His antibody (Invitrogen PV5596) and Alexa-647-conjugated probe.
After a one-hour equilibration at room temperature, TR-FRET ratios were determined using an Envision multilabel plate reader (Ex 340, Em 495/520).
TR-FRET data were normalized to the means of 24 no-compound controls (“high”) and 8 controls containing 1 μM un-labeled probe (“low”). Percent inhibition was plotted as a function of compound concentration and the data were fit with the 4 parameter logistic equation to obtain IC50s. Inhibition constants (Ki) were calculated from the IC50s, probe Kd and probe concentration.

Row | Ki [µM] | Structure (SMILES)
1 | 5.04 | CN1C(=O)[C@]2(C[C@@H]2c2cn(C)c(=O)c3[nH]c(C(=O)NC4CC4)cc23)c2cc(F)ccc21 [Example 17, N-cyclopropyl-4-[(1S,2R)-5′-fluoro-′-methyl-2′-oxo-1′,2′-dihydrospiro[cyclopropane-1,3′-indol]-2-yl]-6-methyl-7-oxo-6,7-dihydro-1H-pyrrolo[2,3-c]pyridine-2-carboxamide]
2 | 4.53 | CN1C(=O)[C@@]2(C[C@H]2c2cn(C)c(=O)c3[nH]c(C(=O)NC4CC4)cc23)c2ccc(Cl)cc21 (racemic) [Example 12, rac-4-[(1R,2S)-6′-chloro-1′-methyl-2′-oxo-1′,2′-dihydrospiro[cyclopropane-1,3′-indol]-2-yl]-N-cyclopropyl-6-methyl-7-oxo-6,7-dihydro-1H-pyrrolo[2,3-c]pyridine-2-carboxamide]
3 | > 13 | Cn1cc([C@@H]2C[C@@]23C(=O)Nc2ccccc23)c2cc(C(=O)NC3CC3)[nH]c2c1=O (single isomer, unassigned) [Example 21]
4 | 5.42 | CN1C(=O)[C@@]2(C[C@H]2c2cn(C)c(=O)c3[nH]c(C(=O)NC4CC4)cc23)c2ccccc21 (racemic) [Example 2, rac-N-cyclopropyl-6-methyl-4-[(1R,2S)-1′-methyl-2′-oxo-1′,2′-dihydrospiro[cyclopropane-1,3′-indol]-2-yl]-7-oxo-6,7-dihydro-1H-pyrrolo[2,3-c]pyridine-2-carboxamide]
5 | 6.08 | CCNC(=O)c1cc2c([C@@H]3C[C@@]34C(=O)N(C)c3ccccc34)cn(C)c(=O)c2[nH]1 (racemic) [Example 1, rac-N-ethyl-6-methyl-4-[(1R,2S)-1′-methyl-2′-oxo-1′,2′-dihydrospiro[cyclopropane-1,3′-indol]-2-yl]-7-oxo-6,7-dihydro-1H-pyrrolo[2,3-c]pyridine-2-carboxamide]
6 | 4.68 | COc1ccc(NC(=O)c2cc3c([C@@H]4C[C@@]45C(=O)N(C)c4ccccc45)cn(C)c(=O)c3[nH]2)cc1 (racemic) [Example 9, rac-N-(4-methoxyphenyl)-6-methyl-4-[(1R,2S)-1′-methyl-2′-oxo-1′,2′-dihydrospiro[cyclopropane-1,3′-indol]-2-yl]-7-oxo-6,7-dihydro-1H-pyrrolo[2,3-c]pyridine-2-carboxamide]
7 | > 13 | CN1C(=O)[C@@]2(C[C@H]2c2cn(C)c(=O)c3[nH]c(-c4ccccn4)cc23)c2ccccc21 (racemic) [Example 45, rac-(1R,2S)-1′-methyl-2-[6-methyl-7-oxo-2-(pyridin-2-yl)-6,7-dihydro-1H-pyrrolo[2,3-c]pyridin-4-yl]spiro[cyclopropane-1,3′-indol]-2′(1H)-one]
8 | 4.14 | CN1C(=O)[C@@]2(C[C@H]2c2cn(C)c(=O)c3[nH]c(-c4cccnc4)cc23)c2ccccc21 [Example 49, (1R,2S)-1′-methyl-2-[6-methyl-7-oxo-2-(pyridin-3-yl)-6,7-dihydro-1H-pyrrolo[2,3-c]pyridin-4-yl]spiro[cyclopropane-1,3′-indol]-2′(1H)-one]
9 | 1.08 | CN1C(=O)[C@@]2(C[C@H]2c2cn(C)c(=O)c3[nH]c(-c4cncnc4)cc23)c2ccccc21 (racemic) [Example 54, rac-(1R,2S)-1′-methyl-2-[6-methyl-7-oxo-2-(pyrimidin-5-yl)-6,7-dihydro-1H-pyrrolo[2,3-c]pyridin-4-yl]spiro[cyclopropane-1,3′-indol]-2′(1H)-one]
10 | 4.8 | COc1ccc2c(c1)N(C)C(=O)[C@@]21C[C@H]1c1cn(C)c(=O)c2[nH]c(C(=O)NC3CC3)cc12 (racemic) [Example 14, rac-N-cyclopropyl-4-[(1R,2S)-6′-methoxy-1′-methyl-2′-oxo-1′,2′-dihydrospiro[cyclopropane-1,3′-indol]-2-yl]-6-methyl-7-oxo-6,7-dihydro-1H-pyrrolo[2,3-c]pyridine-2-carboxamide]

Second part, the compound before the results:

Row | Structure (SMILES) | Ki [µM]
11 | CN1C(=O)[C@@]2(C[C@@]2(C)c2cn(C)c(=O)c3[nH]c(C(=O)NC4CC4)cc23)c2ccc(OC(F)(F)F)cc21 (racemic) [Example 58, rac-N-cyclopropyl-4-[(1R,2S)-1′,2-dimethyl-2′-oxo-6′-(trifluoromethoxy)-1′,2′-dihydrospiro[cyclopropane-1,3′-indol]-2-yl]-6-methyl-7-oxo-6,7-dihydro-1H-pyrrolo[2,3-c]pyridine-2-carboxamide] | > 13
12 | CN1C(=O)[C@@]2(C[C@H]2c2cn(C)c(=O)c3[nH]c(C(=O)O)cc23)c2ccccc21 (single isomer, unassigned) [Example 7] | > 13
13 | CN1C(=O)[C@@]2(C[C@H]2c2cn(C)c(=O)c3[nH]c(-c4cn(C)cn4)cc23)c2ccccc21 (racemic) [Example 43, rac-(1R,2S)-1′-methyl-2-[6-methyl-2-(1-methyl-1H-imidazol-4-yl)-7-oxo-6,7-dihydro-1H-pyrrolo[2,3-c]pyridin-4-yl]spiro[cyclopropane-1,3′-indol]-2′(1H)-one] | 1.84
14 | CN1C(=O)[C@@]2(C[C@H]2c2cn(C)c(=O)c3[nH]c(C(=O)NC4CC4)cc23)c2cc(F)ccc21 (single isomer, unassigned) [Example 18] | > 13
15 | Cn1cc([C@@H]2C[C@@]23C(=O)N(Cc2ccc(N)cc2)c2ccccc23)c2cc(C(=O)NC3CC3)[nH]c2c1=O (racemic) [Example 28, rac-4-{(1R,2S)-1′-[(4-aminophenyl)methyl]-2′oxo-1′,2′-dihydrospiro[cyclopropane-1,3′-indol]-2-yl}-N-cyclopropyl-6-methyl-7-oxo-6,7-dihydro-1H-pyrrolo [2,3-c]pyridine-2-carboxamide] | 7.43
16 | Cc1cc(-c2cc3c([C@@H]4C[C@@]45C(=O)N(C)c4ccccc45)cn(C)c(=O)c3[nH]2)on1 (racemic) [Example 39, rac-(1R,2S)-1′-methyl-2-[6-methyl-2-(3-methyl-1,2-oxazol-5-yl)-7-oxo-6,7-dihydro-1H-pyrrolo[2,3-c]pyridin-4-yl]spiro[cyclopropane-1,3′-indol]-2′(1H)-one] | 0.885
17 | CN1C(=O)[C@@]2(C[C@H]2c2cn(C)c(=O)c3[nH]c(C(=O)Nc4cccc(CO)c4)cc23)c2ccccc21 (racemic) [Example 10, rac-N-[3-(hydroxymethyl)phenyl]-6-methyl-4-[(1R,2S)-1′-methyl-2′-oxo-1′,2′-dihydrospiro[cyclopropane-1,3′-indol]-2-yl]-7-oxo-6,7-dihydro-1H-pyrrolo[2,3-c]pyridine-2-carboxamide] | 2.05
18 | CN1C(=O)[C@@]2(C[C@H]2c2cn(C)c(=O)c3[nH]c(C(=O)NC4CC4)cc23)c2cccc(Br)c21 (racemic) [Example 29, rac-4-[(1R,2S)-7′-bromo-1′-methyl-2′-oxo-1′,2′-dihydrospiro[cyclopropane-1,3′-indol]-2-yl]-N-cyclopropyl-6-methyl-7-oxo-6,7-dihydro-1H-pyrrolo[2,3-c]pyridine-2-carboxamide] | 4.84
19 | Cn1cc([C@@H]2C[C@@]23C(=O)Nc2ccccc23)c2cc(C(=O)NC3CC3)[nH]c2c1=O (racemic) [Example 19, rac-N-cyclopropyl-6-methyl-7-oxo-4-[(1R,2S)-2′-oxo-1′,2′-dihydrospiro[cyclopropane-1,3′-indol]-2-yl]-6,7-dihydro-1H-pyrrolo[2,3-c]pyridine-2-carboxamide] | > 13
20 | CN1C(=O)[C@@]2(C[C@@H]2c2cn(C)c(=O)c3[nH]c(-c4cc[nH]n4)cc23)c2ccccc21 (racemic) [Example 38, rac-(1R,2R)-1′-methyl-2-[6-methyl-7-oxo-2-(1H-pyrazol-3-yl)-6,7-dihydro-1H-pyrrolo[2,3-c]pyridin-4-yl]spiro[cyclopropane-1,3′-indol]-2′(1H)-one] | > 13
21 | CN1C(=O)[C@@]2(C[C@H]2c2cn(C)c(=O)c3[nH]c(-c4cccnc4)cc23)c2ccccc21 (racemic) [Example 47, rac-(1R,2S)-1′-methyl-2-[6-methyl-7-oxo-2-(pyridin-3-yl)-6,7-dihydro-1H-pyrrolo[2,3-c]pyridin-4-yl]spiro[cyclopropane-1,3′-indol]-2′(1H)-one] | 2.62
22 | COCCN1C(=O)[C@@]2(C[C@H]2c2cn(C)c(=O)c3[nH]c(C(=O)NC4CC4)cc23)c2ccccc21 (racemic) [Example 27, rac-N-cyclopropyl-4-[(1R,2S)-1′-(2-methoxyethyl)-2′-oxo-1′,2′-dihydrospiro[cyclopropane-1,3′-indol]-2-yl]-6-methyl-7-oxo-6,7-dihydro-1H-pyrrolo[2,3-c]pyridine-2-carboxamide] | > 13
23 | CN1C(=O)[C@@]2(C[C@H]2c2cn(C)c(=O)c3[nH]c(-c4cc[nH]n4)cc23)c2ccccc21 (racemic) [Example 37, rac-(1R,2S)-1′-methyl-2-[6-methyl-7-oxo-2-(1H-pyrazol-3-yl)-6,7-dihydro-1H-pyrrolo[2,3-c]pyridin-4-yl]spiro[cyclopropane-1,3′-indol]-2′(1H)-one] | 1.25
24 | CN1C(=O)[C@@]2(C[C@H]2c2cn(C)c(=O)c3[nH]c(C(=O)NC4CC4)cc23)c2cc(F)ccc21 (racemic) [Example 16, rac-N-cyclopropyl-4-[(1R,2S)-5′-fluoro-1′-methyl-2′-oxo-1′,2′-dihydrospiro[cyclopropane-1,3′-indol]-2-yl]-6-methyl-7-oxo-6,7-dihydro-1H-pyrrolo[2,3-c]pyridine-2-carboxamide] | 9.95
